Results from article PMC6747318, “Mutual Enhancement of Opioid and Adrenergic Receptors by Combinations of Opioids and Adrenergic Ligands Is Reflected in Molecular Complementarity of Ligands: Drug Development Possibilities” (International Journal of Molecular Sciences, 2019).

Legend:
[1] = UV spectroscopy binding between compounds: binding to methadone; settings: pH 7.4 sodium phosphate buffer, read-out: Kd @ 200 nm, binding to Meth
[2] = UV spectroscopy binding between compounds: binding to propranolol; settings: read-out: Kd @ 200 nm, binding to Prop; UV spectroscopy, pH 7.4 sodium phosphate buffer; single binding constant
[3] = UV spectroscopy binding between compounds: binding to glucose; settings: read-out: Kd @ 200 nm, binding to Glucose, pH 7.4 sodium phosphate buffer
[4] = target: T1, beta 2 adrenergic receptor (B2AR) 175–188 (Homo sapiens, UniProt P07550); experiment: UV spectroscopy binding to receptor peptide B2AR 175–188
T1 construct: B2AR 175–188
Method: (§1) After the solutions were made, a 96-well quartz crystal plate was prepared to be run through the spectrophotometer at room temperature (ca. 24 °C). […] The absorbance of each receptor peptide without the presence of the adrenergic compound was measured as well. The absorbance of each well was measured at every 10 nm increment from 190 nm to 260 nm. The maximum absorbance that can be measured was set to four. Each well had 200 μL of solution, so if the absorbance of one component was being measured, it was diluted by half with a phosphate buffer.
(§2) If the measured absorbance is different than the additive absorbance of each compound, then that indicates some sort of molecular interaction. The binding can be quantified by graphing the difference in absorbance against the concentration of the compound varied to provide a binding curve. The data are analyzed by finding the additive absorbance and plotting the difference between this absorbance and the actual absorbance against the concentration of the adrenergic compound. The absorbance for the phosphate buffer is subtracted for each well before any calculations are done. […] The binding constants were estimated from the half-saturation point.

[5] = target: T2, dopamine D1 receptor (D1DR) 170–188 (Homo sapiens, UniProt P21728); experiment: UV spectroscopy binding to receptor peptide D1DR 170–188
T2 construct: D1DR 170–188
Method: as §1, §2

[6] = UV spectroscopy binding between compounds: binding to ascorbic acid; settings: read-out: Kd @ 200 nm, binding to Asc, pH 7.4 sodium phosphate buffer
[7] = target: intact mu opioid receptors (muOPRs) (Homo sapiens, UniProt P35372); assay type: binding; parameters: intact mu opioid receptors (muOPRs); deca-histidine tag (N); made in house; host or cells: E. coli C43 (DE3)
Chain of intact mu opioid receptors (muOPRs) (P35372 whole entry): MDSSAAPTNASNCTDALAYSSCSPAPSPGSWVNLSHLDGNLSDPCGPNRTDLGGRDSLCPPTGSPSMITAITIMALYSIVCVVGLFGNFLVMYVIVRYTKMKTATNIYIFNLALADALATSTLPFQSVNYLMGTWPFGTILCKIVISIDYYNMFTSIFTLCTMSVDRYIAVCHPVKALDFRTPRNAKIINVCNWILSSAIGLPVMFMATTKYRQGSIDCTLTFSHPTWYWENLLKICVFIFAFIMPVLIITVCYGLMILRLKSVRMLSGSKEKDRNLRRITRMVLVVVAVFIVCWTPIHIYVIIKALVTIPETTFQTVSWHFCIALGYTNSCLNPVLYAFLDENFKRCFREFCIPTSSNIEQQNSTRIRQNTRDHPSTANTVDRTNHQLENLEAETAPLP

[8] = target: T3, beta 2 adrenergic receptor (B2AR) 97–103 (Homo sapiens, UniProt P07550); experiment: UV spectroscopy binding to receptor peptide B2AR 97–103
T3 construct: B2AR 97–103
Method: as §1, §2

[9] = UV spectroscopy binding between compounds: binding to amphetamine; settings: read-out: Kd @ 200 nm, binding to Amph; UV spectroscopy, pH 7.4 sodium phosphate buffer; single binding constant
[10] = UV spectroscopy binding between compounds: binding to riboflavin; settings: pH 7.4 sodium phosphate buffer, read-out: Kd @ 200 nm, binding to Ribo
[11] = UV spectroscopy binding between compounds: binding to morphine sulfate; settings: read-out: Kd @ 200 nm, binding to Morph; UV spectroscopy, pH 7.4 sodium phosphate buffer; single binding constant
[12] = UV spectroscopy binding between compounds: binding to naloxone; settings: pH 7.4 sodium phosphate buffer, read-out: Kd @ 200 nm, binding to NAL
[13] = target: T4, dopamine D1 receptor (D1DR) 89–98 (Homo sapiens, UniProt P21728); experiment: UV spectroscopy binding to receptor peptide D1DR 89–98
T4 construct: D1DR 89–98
Method: as §1, §2

[14] = target: methionine-enkephalin (Homo sapiens, UniProt P01210); experiment: UV spectroscopy binding between compounds: binding to methionine-enkephalin; parameters: M-Enk = methionine-enkephalin; purchased Sigma-Aldrich; settings: Kd @ 200 nm, binding to M-Enk, UV spectroscopy, pH 7.4 sodium phosphate buffer; single binding constant

SMILES: CC(=O)OCC[N+](C)(C)C [Acetylcholine]
- Kd [1]: > 1 mM
- Kd [2]: > 1 mM
- Kd [3]: > 1 mM
- Kd [4]: > 1 mM
- Kd [5]: > 1 mM
- Kd [6]: > 1 mM
- ligand binding to intact muOPRs [7]: no observable bind
- Kd [8]: > 1 mM
- Kd [9]: > 1 mM
- Kd [10]: > 1 mM
- Kd [11]: > 1 mM
- Kd [12]: > 1 mM
- Kd [13]: > 1 mM
- Kd [14]: 80 µM
